Assay results: ChEMBL document CHEMBL3098019, “Structure-based screening for the discovery of new carbonic anhydrase VII inhibitors” (Eur J Med Chem, 2014)

Assays:
Carbonic anhydrase 14 = Carbonic anhydrase 14 (Homo sapiens, UniProt Q9ULX7); test: Inhibition of human recombinant carbonic anhydrase 14 preincubated for 15 mins by stopped flow CO2 hydration assay
Carbonic anhydrase 9 = Carbonic anhydrase 9 (Homo sapiens, UniProt Q16790)
Description: Inhibition of human catalytic domain of carbonic anhydrase 9 preincubated for 15 mins by stopped flow CO2 hydration assay

Carbonic anhydrase 2 = Carbonic anhydrase 2 (Homo sapiens, UniProt P00918); test: Inhibition of human recombinant carbonic anhydrase 2 preincubated for 15 mins by stopped flow CO2 hydration assay
Carbonic anhydrase 1 = Carbonic anhydrase 1 (Homo sapiens, UniProt P00915); test: Inhibition of human recombinant carbonic anhydrase 1 preincubated for 15 mins by stopped flow CO2 hydration assay
Chain of Carbonic anhydrase 1 (P00915 whole entry): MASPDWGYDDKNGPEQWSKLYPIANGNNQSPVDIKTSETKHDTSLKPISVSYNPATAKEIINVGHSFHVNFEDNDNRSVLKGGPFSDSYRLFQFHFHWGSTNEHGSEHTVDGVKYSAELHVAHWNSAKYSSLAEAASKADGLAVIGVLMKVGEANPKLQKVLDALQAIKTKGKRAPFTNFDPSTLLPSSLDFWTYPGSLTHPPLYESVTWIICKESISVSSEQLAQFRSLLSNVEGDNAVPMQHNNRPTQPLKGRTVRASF

Chain of Carbonic anhydrase 14 (Q9ULX7 whole entry): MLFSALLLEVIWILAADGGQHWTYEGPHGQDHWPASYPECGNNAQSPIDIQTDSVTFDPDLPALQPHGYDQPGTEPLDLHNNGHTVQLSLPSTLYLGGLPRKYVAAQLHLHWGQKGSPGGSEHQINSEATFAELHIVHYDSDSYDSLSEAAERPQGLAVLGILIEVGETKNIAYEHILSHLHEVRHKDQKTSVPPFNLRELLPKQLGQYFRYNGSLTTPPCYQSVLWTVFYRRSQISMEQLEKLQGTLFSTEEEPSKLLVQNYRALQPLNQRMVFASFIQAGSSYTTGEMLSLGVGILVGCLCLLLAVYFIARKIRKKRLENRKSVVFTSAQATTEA

Row | Ki (Carbonic anhydrase 14) [nM] | Ki (Carbonic anhydrase 9) [nM] | Ki (Carbonic anhydrase 2) [nM] | Ki (Carbonic anhydrase 1) [nM] | Compound
1 | 7.6 | 53.2 | 73.2 | 8.9 | NS(=O)(=O)Cc1ccc(NC(=O)C2CC=CCC2)cc1 (configuration not stated)
2 | 19.4 | – | 6.3 | 8.6 | NS(=O)(=O)Cc1ccc(NS(=O)(=O)c2ccc(Br)cc2Cl)cc1
